Columns and labels:
[1] = system: rat aortic rings; experiment: Isometric tension measurement, U46619-precontracted aortic rings
Protocol: A vasoconstriction-relaxation study was performed as described previously. Male Sprague-Dawley rats were purchased from Orient Bio (Gyeonggi-do, South Korea). Briefly, the thoracic aortas of the rats were excised and immersed in ice-cold, modified Krebs solution. The aortas were cleaned of all connective tissue, soaked in Krebs-bicarbonate solution, and cut into four ring segments (3.5 mm long). Each aortic ring was suspended in a water-jacketed organ bath (6 mL) maintained at 37°C and aerated with a mixture of 95% O2 and 5% CO2. Each ring was connected to an isometric force transducer (Danish Myo Technology, Skejbyparken, Aarhus N, Denmark). The rings were stretched to an optimal resting tension of 1.0 or 2.0 g, which was maintained throughout the experiment. Each ring was equilibrated in the organ bath solution for 90 min before the contractile responses were measured after the addition of 50 mM KCl.

[2] = system: Ang II-induced hypertensive mice; conditions: cited from earlier work
[3] = system: Ang II-induced hypertensive mice; experiment: Systolic blood pressure (tail-cuff) in Ang II-induced hypertensive mice; format: in vivo; conditions: Ang II-infused mice, 3 mg·kg^-1·day^-1 i.p. day 8 to 14, vs Ang II group
Text: All animal experiments were approved by the Animal Experiment Committee of the Chonnam National University Medical School (CNU IACUC-H-2017-70) and carried out in accordance with the Guide for the Care and Use of Laboratory Animals (US National Institutes of Health Publication, 8th edition, 2011). CD-1 male mice (8-week-old) were purchased from OrientBio Company (Gyeonggi, South Korea). Alzet mini-osmotic pumps (model 1002) were purchased from Durect Corporation (Cupertino, CA, USA).

[4] = system: AT1 mRNA; experiment: qRT-PCR of aortic tissue, Ang II mice; format: in vivo; conditions: Ang II-infused mice, 3 mg·kg^-1·day^-1 i.p. day 8 to 14, vs Ang II group
[5] = system: ANP mRNA; experiment: qRT-PCR of heart tissue, Ang II mice; format: in vivo; conditions: Ang II-infused mice, 3 mg·kg^-1·day^-1 i.p. day 8 to 14, vs Ang II group
[6] = system: BNP mRNA; experiment: qRT-PCR of heart tissue, Ang II mice; format: in vivo; conditions: Ang II-infused mice, 3 mg·kg^-1·day^-1 i.p. day 8 to 14, vs Ang II group
[7] = system: skeletal α-actin mRNA; experiment: qRT-PCR of heart tissue, Ang II mice; format: in vivo; conditions: Ang II-infused mice, 3 mg·kg^-1·day^-1 i.p. day 8 to 14, vs Ang II group
[8] = system: Ang II-induced hypertensive mice; experiment: Aortic wall thickness (H&E staining) in Ang II mice; format: in vivo; conditions: Ang II-infused mice, 3 mg·kg^-1·day^-1 i.p. day 8 to 14, H&E, vs Ang II group
[9] = system: cyclin D1 mRNA; experiment: qRT-PCR of aortic tissue, Ang II mice; format: in vivo; conditions: Ang II-infused mice, 3 mg·kg^-1·day^-1 i.p. day 8 to 14, vs Ang II group
[10] = system: cyclin E1 mRNA; experiment: qRT-PCR of aortic tissue, Ang II mice; format: in vivo; conditions: Ang II-infused mice, 3 mg·kg^-1·day^-1 i.p. day 8 to 14, vs Ang II group
[11] = system: E2F3 mRNA; experiment: qRT-PCR of aortic tissue, Ang II mice; format: in vivo; conditions: Ang II-infused mice, 3 mg·kg^-1·day^-1 i.p. day 8 to 14, vs Ang II group
[12] = system: GATA6 mRNA; experiment: qRT-PCR of aortic tissue, Ang II mice; format: in vivo; conditions: Ang II-infused mice, 3 mg·kg^-1·day^-1 i.p. day 8 to 14, vs Ang II group
[13] = system: vascular smooth muscle cells (VSMCs); experiment: NO production in VSMC medium (Griess assay); format: cell-based; conditions: MS-275 3 and 10 μM, Ang II 1 μM, 24 h, Griess reagent
Protocol: VSMCs were seeded in 12 well plates.

[14] = system: arginase 1 mRNA; experiment: qRT-PCR of aortic tissue, Ang II mice; format: in vivo; conditions: Ang II-infused mice, 3 mg·kg^-1·day^-1 i.p. day 8 to 14, vs Ang II group
[15] = system: arginase 2 mRNA; experiment: qRT-PCR of aortic tissue, Ang II mice; format: in vivo; conditions: Ang II-infused mice, 3 mg·kg^-1·day^-1 i.p. day 8 to 14, vs Ang II group
[16] = system: GTPCH mRNA; experiment: qRT-PCR of aortic tissue, Ang II mice; format: in vivo; conditions: Ang II-infused mice, 3 mg·kg^-1·day^-1 i.p. day 8 to 14, vs Ang II group
[17] = system: Nox1 mRNA; experiment: qRT-PCR of aortic tissue, Ang II mice; format: in vivo; conditions: Ang II-infused mice, 3 mg·kg^-1·day^-1 i.p. day 8 to 14, vs Ang II group
[18] = system: Nox2 mRNA; experiment: qRT-PCR of aortic tissue, Ang II mice; format: in vivo; conditions: Ang II-infused mice, 3 mg·kg^-1·day^-1 i.p. day 8 to 14, vs Ang II group
[19] = system: p47phox mRNA; experiment: qRT-PCR of aortic tissue, Ang II mice; format: in vivo; conditions: Ang II-infused mice, 3 mg·kg^-1·day^-1 i.p. day 8 to 14, vs Ang II group
[20] = system: Cox-2 mRNA; experiment: qRT-PCR of aortic tissue, Ang II mice; format: in vivo; conditions: Ang II-infused mice, 3 mg·kg^-1·day^-1 i.p. day 8 to 14, vs Ang II group
[21] = system: SOD3 mRNA; experiment: qRT-PCR of aortic tissue, Ang II mice; format: in vivo; conditions: Ang II-infused mice, 3 mg·kg^-1·day^-1 i.p. day 8 to 14, vs Ang II group
[22] = system: iNOS mRNA; experiment: qRT-PCR of aortic tissue, Ang II mice; format: in vivo; conditions: Ang II-infused mice, 3 mg·kg^-1·day^-1 i.p. day 8 to 14, vs Ang II group
[23] = system: TNF-α mRNA; experiment: qRT-PCR of aortic tissue, Ang II mice; format: in vivo; conditions: Ang II-infused mice, 3 mg·kg^-1·day^-1 i.p. day 8 to 14, vs Ang II group
[24] = system: IL-1β mRNA; experiment: qRT-PCR of aortic tissue, Ang II mice; format: in vivo; conditions: Ang II-infused mice, 3 mg·kg^-1·day^-1 i.p. day 8 to 14, vs Ang II group
[25] = system: MCP-1 mRNA; experiment: qRT-PCR of aortic tissue, Ang II mice; format: in vivo; conditions: Ang II-infused mice, 3 mg·kg^-1·day^-1 i.p. day 8 to 14, vs Ang II group
[26] = system: VCAM-1 mRNA; experiment: qRT-PCR of aortic tissue, Ang II mice; format: in vivo; conditions: Ang II-infused mice, 3 mg·kg^-1·day^-1 i.p. day 8 to 14, vs Ang II group
[27] = system: ICAM-1 mRNA; experiment: qRT-PCR of aortic tissue, Ang II mice; format: in vivo; conditions: Ang II-infused mice, 3 mg·kg^-1·day^-1 i.p. day 8 to 14, vs Ang II group
[28] = system: CD68+ macrophages; experiment: CD68 immunohistochemistry of aorta (macrophage infiltration), Ang II mice; format: in vivo; conditions: Ang II-infused mice, 3 mg·kg^-1·day^-1 i.p. day 8 to 14, immunohistochemistry
Protocol: For immunohistochemistry, staining was performed in aortic tissues using a primary CD68 antibody. Before incubation with primary antibodies, aorta sections received antigen retrieval using a citrate buffer. Negative controls were performed without a primary antibody.

[29] = system: model of Cushing's syndrome; parameters: method as in PMID 28928236; conditions: model of Cushing's syndrome ref 23; cited from earlier work
[30] = system: collagen type III mRNA; experiment: qRT-PCR, Ang II mice; conditions: Ang II-infused mice, 3 mg·kg^-1·day^-1 i.p. day 8 to 14, S1 Fig
Protocol: (§1) Mice were anesthetized with a ketamine (120 mg/kg), and xylazine (6.2 mg/kg) mixture and 1-cm incisions were created on the backs of the mice. Ang II (1.3 mg·kg^-1·day^-1) was subcutaneously infused into the mice using an Alzet osmotic pump as described previously [26]. […] Ang II was dissolved in a 0.9% sodium chloride (NaCl) solution. The sham control mice received the vehicle (dimethyl sulfoxide [DMSO]). […] Mice were sacrificed at the end of the study by CO2 inhalation.
(§2) Total RNA from the aorta tissue and cells was isolated with TriZol reagent (Invitrogen Life Technologies, Waltham, MA, USA), and 1 μg RNA was used for the reverse transcription (RT) reaction using TOPscript RT DryMIX (Enzynomics, Daejeon, South Korea). The mRNA amounts were determined using the SYBR Green PCR kit (Enzynomics, Daejeon, South Korea). All the data were normalized to the glyceraldehyde 3-phosphate dehydrogenase (GAPDH) expression using the 2-^ΔΔct method.

[31] = system: ACE1 mRNA; experiment: qRT-PCR of aortic tissue, Ang II mice; conditions: Ang II-infused mice, 3 mg·kg^-1·day^-1 i.p. day 8 to 14
Protocol: as §1, §2

[32] = system: DDAH1 mRNA; experiment: qRT-PCR of aortic tissue, Ang II mice; conditions: Ang II-infused mice, 3 mg·kg^-1·day^-1 i.p. day 8 to 14, vs Ang II group
Protocol: as §1, §2

[33] = system: Ang II-induced hypertensive mice; experiment: NO levels in serum and aorta of Ang II-infused mice (Griess assay); conditions: 3 mg·kg^-1·day^-1 i.p.
Protocol: Mice were anesthetized with a ketamine (120 mg/kg), and xylazine (6.2 mg/kg) mixture and 1-cm incisions were created on the backs of the mice. Ang II (1.3 mg·kg^-1·day^-1) was subcutaneously infused into the mice using an Alzet osmotic pump as described previously [26]. […] Ang II was dissolved in a 0.9% sodium chloride (NaCl) solution. The sham control mice received the vehicle (dimethyl sulfoxide [DMSO]). […] Mice were subjected to blood pressure measurements three times before determination of the systolic blood pressure on day 14 after Ang II infusion. The blood pressure was measured in awake mice using the tail-cuff method (BP-2000, Visitech Systems, Apex, NC, USA).
NO levels in the serum (100 μl) were measured without dilution. Aorta NO levels were determined using 50 μg of protein, which was deproteinized with 5% trichloroacetic acid (TCA).

[34] = system: Ang II-induced hypertensive mice; experiment: Aortic collagen deposition (Masson's trichrome staining) in Ang II mice; conditions: Ang II-infused mice, 3 mg·kg^-1·day^-1 i.p. day 8 to 14, Masson's trichrome
Protocol: Mice were anesthetized with a ketamine (120 mg/kg), and xylazine (6.2 mg/kg) mixture and 1-cm incisions were created on the backs of the mice. Ang II (1.3 mg·kg^-1·day^-1) was subcutaneously infused into the mice using an Alzet osmotic pump as described previously [26]. […] Ang II was dissolved in a 0.9% sodium chloride (NaCl) solution. The sham control mice received the vehicle (dimethyl sulfoxide [DMSO]). […] Mice were subjected to blood pressure measurements three times before determination of the systolic blood pressure on day 14 after Ang II infusion. The blood pressure was measured in awake mice using the tail-cuff method (BP-2000, Visitech Systems, Apex, NC, USA). Mice were sacrificed at the end of the study by CO2 inhalation.
Aortic tissues were fixed in 4% paraformaldehyde at 25°C, embedded in paraffin, and cut into 3-μm thick sections. The tissue slides were deparaffinized three times with xylene and hydrated using serially diluted ethanol. After immersing in tap water for 2 min, the slides were stained with Gill’s hematoxylin V for 5 min and then washed with tap water for 5 min and 95% ethanol for 2 min. The slides were stained with Eosin Y for 1 min, dehydrated with ethanol and xylene, and mounted using Canada balsam. The aortic wall thickness was measured using the NIS Elements Software (Nikon, Japan). […]

[35] = system: AT1; conditions: through AT1 ref 25; cited from earlier work
[36] = system: spontaneously hypertensive rats (SHR); parameters: method as in PMID 22389387; conditions: long-term treatment, SHR ref 22; cited from earlier work
[37] = system: high-fat diet-induced hypertension; parameters: method as in PMID 28720877; conditions: by downregulating Ang II and AT1 ref 24; cited from earlier work

Compound: COC(=O)[C@@H](N)CCCNC(N)=N[N+](=O)[O-] [L-NAME, N^G-nitro-L-arginine methyl ester]
- effect of pretreatment on MS-275-induced vascular relaxation ([1]; endothelium-intact rat aortic rings, L-NAME 10 or 100 μM for 30 min): reduced

Compound: Cn1c(/C=C/C(=O)NO)ccc1/C=C/C(=O)c1cccc(F)c1 [MC1568]
- high systolic blood pressure ([2]; Ang II-induced hypertensive mice ref 26): reduces

Compound: Nc1ccccc1NC(=O)c1ccc(CNC(=O)OCc2cccnc2)cc1 [MS-275]
- systolic blood pressure [3]: significantly reduced
- AT1 mRNA level in aorta [4]: decreased
- ANP mRNA level in heart [5]: significantly reduced
- BNP mRNA level in heart [6]: significantly reduced
- skeletal a-actin mRNA level in heart [7]: significantly reduced
- aortic wall thickness [8]: significantly decreased
- cyclin D1 mRNA level in aorta [9]: not significantly decreased
- cyclin E1 mRNA level in aorta [10]: not significantly decreased
- E2F3 mRNA level in aorta [11]: significantly inhibited
- GATA6 mRNA level in aorta [12]: significantly suppressed
- vasorelaxation of U46619-precontracted aortic rings ([1]; endothelium-intact and -denuded rat aortas, U46619 30 nM, MS-275 cumulative 0.003–3 μM): induced vasorelaxation
- concentration at which maximum relaxation was observed ([1]; rat aortic rings precontracted with U46619 30 nM): 3 µM
- NO level in VSMC medium lowered by Ang II [13]: significantly restored
- arginase 1 mRNA level in aorta [14]: not reduced
- arginase 2 mRNA level in aorta [15]: not reduced
- GTPCH mRNA level in aorta [16]: significantly reduced
- Nox1 mRNA level in aorta [17]: unchanged
- Nox2 mRNA level in aorta [18]: unchanged
- p47phox mRNA level in aorta [19]: unchanged
- Cox-2 mRNA level in aorta [20]: not significantly decreased
- SOD3 mRNA expression in aorta [21]: did not restore
- iNOS mRNA level in aorta [22]: significantly attenuated
- TNF-α mRNA level in aorta [23]: significantly attenuated
- IL-1β mRNA level in aorta [24]: significantly attenuated
- MCP-1 mRNA level in aorta [25]: significantly attenuated
- VCAM-1 expression in aorta [26]: significantly inhibited
- ICAM-1 expression in aorta [27]: significantly inhibited
- number of CD68+ macrophages in aorta tissue [28]: reduced
- hypertension and hyperglycemia [29]: attenuates
- collagen type III mRNA level [30]: reduced
- ACE1 mRNA level in aorta [31]: significantly reduced
- DDAH1 mRNA level in aorta [32]: suppressed
- NO level in aorta [33]: not induced
- NO level in serum [33]: not induced
- collagen deposition in the adventitia of aortic tissues [34]: attenuated

Compound: Nc1cc(F)ccc1NC(=O)/C=C/c1cnn(C/C=C/c2ccccc2)c1 [RGFP966]
- systolic blood pressure [3]: significantly reduced
- ANP mRNA level in heart [5]: significantly reduced
- BNP mRNA level in heart [6]: significantly reduced
- skeletal a-actin mRNA level in heart [7]: significantly reduced
- aortic wall thickness [8]: significantly decreased
- cyclin D1 mRNA level in aorta [9]: not significantly decreased
- cyclin E1 mRNA level in aorta [10]: not significantly decreased
- E2F3 mRNA level in aorta [11]: significantly inhibited
- GATA6 mRNA level in aorta [12]: significantly suppressed
- arginase 1 mRNA level in aorta [14]: not reduced
- arginase 2 mRNA level in aorta [15]: not reduced
- GTPCH mRNA level in aorta [16]: significantly reduced
- Nox1 mRNA level in aorta [17]: unchanged
- Nox2 mRNA level in aorta [18]: unchanged
- p47phox mRNA level in aorta [19]: unchanged
- Cox-2 mRNA level in aorta [20]: not significantly decreased
- SOD3 mRNA expression in aorta [21]: did not restore
- iNOS mRNA level in aorta [22]: not
- MCP-1 mRNA level in aorta [25]: not
- VCAM-1 expression in aorta [26]: not
- number of CD68+ macrophages in aorta tissue [28]: reduced

Compound: CC(/C=C/C(=O)NO)=C\[C@@H](C)C(=O)c1ccc(N(C)C)cc1 [TSA, trichostatin A]
- hypertension and vasoconstriction [35]: inhibits

Compound: CCCC(CCC)C(=O)O [VPA, valproic acid]
- cardiac hypertrophy, inflammation, and hypertensive responses [36]: reduces
- high-fat diet-induced hypertension [37]: prevents

Compound: CN1CCc2c(c3ccccc3n2Cc2ccc(C(=O)NO)cc2)C1 [tubastatin A]
- hypertension ([2]; Ang II-infused mice ref 28): did not reduce
